These results are taken from patent publication US20260232753A1, “COMPOSITION FOR TREATING MACULAR DEGENERATION COMPRISING NOVEL PEPTIDE” (EYEBIOKOREA, INC., priority 2021, published 2026).

Values after ≈ are worked out from the molar mass of the structure shown. Where a SMILES comes first, the peptide text is derived from it. Where no end group is shown, it is not given here. [ ]: non-standard residue; d: D form. Hyp = O=C(O)[C@@H]1C[C@@H](O)CN1; Phg = N[C@H](C(=O)O)c1ccccc1; Tle = CC(C)(C)[C@H](N)C(=O)O; Aib = CC(C)(N)C(=O)O

Series [1] deals with choroidal neovascularization (CNV). Kind of series: Inhibition of choroidal neovascularization: electroretinography, b-wave amplitude as indicator of retinal function. Particulars: laser-induced CNV; 1 μL intravitreal, peptide 10 mg/mL or aflibercept 20 mg/mL; single white light 0.9 cd·sec/m^2. It counts as in vivo, C57BL/6 mice. From the text:
(§1) The CNV animal model used in the present invention is a mouse model in which lesions are induced by irradiating a laser to the choroid of C57BL/6 mice using a laser slit system. The laser-induced CNV model, first described in 1979, uses photocoagulation to disturb Bruch's membrane to induce the growth of choroidal neovascularization into the retina area, and it is similar in development to neovascular disease in the human retina, that is, wet macular degeneration (wet AMD), in that neovascularity arises from the choroid. In addition, the laser-induced CNV model was successful in predicting the clinical efficacy of anti-vascular endothelial growth factor (VEGF) treatment for neovascular AMD, and is an animal model used in the development stage of existing therapeutic agents (Gong Y, Li J, Sun Y, Fu Z, Liu C H, Evans L, et al. (2015) Optimization of an Image-Guided Laser-Induced Choroidal Neovascularization Model in Mice. PLOS ONE 10 (7)).
(§2) In order to evaluate the efficacy of the peptide of the present invention to inhibit the choroidal neovascularization (CNV), an experiment was performed as follows.
The eyes of 7-8 week old C57BL/6 mice were instilled with a mydriatic agent to dilate the pupils, and the mice were anesthetized by intraperitoneal injection of ketamine (50 mg/kg) and rompun (23.32 mg/kg). A slit-lamp laser injection system was used to irradiate the laser to the choroid of each eye of the mouse four times in the 12 o'clock, 3 o'clock, 6 o'clock, and 9 o'clock directions. At this time, the laser irradiation conditions were 532 nm, 80 msec, and 240 mW. Immediately after laser irradiation, 1 μL of each peptide at a concentration of 10 mg/mL or aflibercept at a concentration of 20 mg/mL, which was dissolved in PBS, was injected into the vitreous body using a syringe. For electroretinogram analysis, dark adaptation was performed for more than 12 hours. The mice were subjected to mydriasis in a dark room and anesthetized, and then electroretinography was performed by contacting the ground electrode to the tail, the reference electrode to the head, and the corneal electrode to the cornea. The response values were obtained by stimulating the retina with a single white light of 0.9 cd·sec/m^2 flash intensity, and the amplitude, which is determined from the trough of the a-wave to the peak of the b-wave, was measured and evaluated as an indicator of retinal function. The results of all tests are expressed as mean #standard deviation, and significance was verified using one-way ANOVA and Kruskal-wallis test.

The test system is the same in series [2]. The experiment in a line: Inhibition of choroidal neovascularization: fluorescence value (CTF) at the CNV site by FFA, laser-induced CNV model, intravitreal injection. It is filed as in vivo, C57BL/6 mice. The settings on record: laser-induced CNV; 1 μL intravitreal, peptide 10 mg/mL or aflibercept 20 mg/mL; ten days after administration; lower CTF = less CNV.
Description: as §1, §2
(§3) The eyes of 7-8 week old C57BL/6 mice were instilled with a mydriatic agent to dilate the pupils, and the mice were anesthetized by intraperitoneal injection of ketamine (50 mg/kg) and rompun (23.32 mg/kg). A slit-lamp laser injection system was used to irradiate the laser to the choroid of each eye of the mouse four times in the 12 o'clock, 3 o'clock, 6 o'clock, and 9 o'clock directions. At this time, the laser irradiation conditions were 532 nm, 80 msec, and 240 mW. Immediately after laser irradiation, 1 μL of each peptide at a concentration of 10 mg/mL or aflibercept at a concentration of 20 mg/mL, which was dissolved in PBS, was injected into the vitreous body using a syringe. Ten days after drug administration, the mice were anesthetized, and 2% fluorescein was administered to the abdominal cavity to stain blood vessels. The retina was photographed 2 to 3 minutes after fluorescein administration. The size and fluorescence value of CNV lesions induced by laser were measured using the ImageJ program, and in order to reduce the differences between subjects, the CTF (corrected total fluorescence) was calculated by removing the background, and the values of each group were compared. The results of all tests are expressed as mean±standard deviation, and significance was verified using one-way ANOVA and Kruskal-wallis test.

For series [3] the test system is unchanged. Kind of series: Inhibition of choroidal neovascularization: optical coherence tomography, size of CNV lesion, intravitreal injection. It counts as in vivo, C57BL/6 mice. The settings on record: laser-induced CNV; 1 μL intravitreal, peptide 10 mg/mL or aflibercept 20 mg/mL; ten days after administration; OCT.
Description: as §1, §2
as §3, with “and” for “and 2% fluorescein was administered to”, “the” for “the abdominal cavity to stain blood vessels. The retina was photographed 2 to 3 minutes after fluorescein administration. The size and fluorescence value of”, “calculated and expressed as μm^2” for “measured”, “program” for “program, and in order to reduce the differences between subjects, the CTF (corrected total fluorescence) was calculated”, “transmitting an OCT beam for” for “removing the background, and the values of”, “burn.” for “group were compared.”

Series [4] has as its system neovascularity. The experiment in a line: Eye drop efficacy to inhibit neovascularity in Vldlr knockout mice: lesion area by retinal fluorescence imaging. It is filed as in vivo. From the text: A symptom of neovascular macular degeneration is retinal angiomatous proliferation (RAP), which occurs in approximately 12 to 15% of patients who are newly diagnosed with neovascular macular degeneration. Meanwhile, Vldlr is known to be one of the functional candidate genes for human macular degeneration, and mice in which Vldlr is knocked out (−/−) show retinal hemangioma proliferation along with subretinal neovascularization. Therefore, in order to evaluate the neovascularity inhibitory efficacy of the eye drop comprising the peptide of Example 43 (002-175), which was confirmed to be an excellent peptide through the above test examples, in Vldlr knockout (−/−) mice, an animal model of neovascular macular degeneration disease, an experiment was performed as follows.
From 6 weeks of age (P42) to 14 weeks of age (P98), Vldlr^−/− mice were instilled with the eye drop comprising the peptide of Example 43 (002-175) twice a day, and as a positive control group, aflibercept at a concentration of 20 mg/mL was intraocularly injected once, 1 μL each, into the vitreous body of 6 week old mice. The eyes of the mice were instilled with a mydriatic agent to dilate the pupils, and then the mice were anesthetized by intraperitoneal injection of ketamine (50 mg/kg) and rompun (23.32 mg/kg), and 2% fluorescein was injected to the abdominal cavity to stain blood vessels. Images were acquired through retinal fluorescence imaging, and the lesion area was calculated using the ImageJ program, and the results of the experiment are shown in FIGS. 10 and 11.

A short description of series [5]: Solubility of the peptide in water (Korean Pharmacopoeia method). The settings on record: 20±5° C.; for solubility: within 30 minutes. It is filed as physicochemical. The protocol:
In order to evaluate the solubility of the peptide of the present invention, an experiment was performed as follows.
The solubility test was conducted based on the Korean Pharmacopoeia method, and the solubility was determined as the degree to which 0.1 g of peptide was dissolved within 30 minutes when added to 10 mL of water and shaken vigorously for 30 seconds every 5 minutes at 20±5° C.

Series [6] in a line: Stability of the peptide: content analysis by HPLC in aqueous solution under harsh conditions. Particulars: for Decrease rate: after 7 days; for Initial content: HPLC. It counts as physicochemical. The protocol: In order to evaluate the stability of the peptide of the present invention, an experiment was performed as follows.
The stability of the peptide was confirmed through content analysis in an aqueous solution at 40° C., 75% humidity, and harsh conditions, and was analyzed using HPLC under the following conditions. • Analysis column: C18 (4.6 Y 250 mm, 5 μm, YMC Hydrosphere) • Analysis wavelength: ultraviolet absorption spectrophotometer (210 nm) • Injection volume/Flow rate: 10 μL/0.8 mL/min • Column temperature: 45° C. • Mobile phase: 0.1 M phosphate buffer methanol mixture (83:17)

In series [1], aflibercept [reference compound] returned a b-wave amplitude of 398 μV. The “CTF (corrected total fluorescence) value” in series [2] was “+ (+: 300,000 to 800,000)”. The Size of lesion in series [3] was 5,437 μm^2. Also, the “Size of the lesion (area of new blood vessels), course during administration (in words)” value in series [4] (P42 to P98, for aflibercept from the 2nd week) was “gradually increased again”. Moreover, the “Size of the lesion (area of new blood vessels), 1 week after administration (in words)” value in series [4] (P49) is on record as “reduced rapidly”. In series [4] (P98), the “Size of the lesion (area of new blood vessels), after 8 weeks (in words)” value is listed as “reached a size similar to that of the group administered with vehicle”.
For the compound `CC(C)C[C@H](NC(=O)CNC(=O)[C@H](CCC(=O)O)NC(=O)[C@H](CCC(N)=O)NC(=O)CNC(=O)[C@@H]1C[C@@H](O)CN1)C(=O)N[C@@H](C)C(=O)O` [Example 40, Hyp-Gly-Gln-Glu-Gly-Leu-Ala] (H-[Hyp]GQEGLA-OH; N-terminus and C-terminus assumed), the solubility in series [5] was ≥ 330 mg/mL.
As to `CC(C)C[C@H](NC(=O)C(C)(C)NC(=O)[C@H](CCC(=O)O)NC(=O)[C@H](CCC(N)=O)NC(=O)CNC(=O)[C@@H]1C[C@@H](O)CN1)C(=O)N[C@@H](C)C(=O)O` [Example 43, Hyp-Gly-Gln-Glu-Aib-Leu-Ala] (H-[Hyp]GQE[Aib]LA-OH; N-terminus and C-terminus assumed), in series [5], the “Solubility (in words)” value was “most excellent solubility” and the solubility is ≥ 500 mg/mL. For the same compound, the “Stability (in words)” value in series [6] (40° C., 75% humidity, 7 days) is recorded as “most excellent stability”.
As for `CC(C)C[C@H](NC(=O)[C@@H](NC(=O)[C@H](CCC(=O)O)NC(=O)[C@H](CCC(N)=O)NC(=O)CNC(=O)[C@@H]1C[C@@H](O)CN1)C(C)(C)C)C(=O)N[C@@H](C)C(=O)O` [Example 44, Hyp-Gly-Gln-Glu-tert-Leu-Leu-Ala] (H-[Hyp]GQE[Tle]LA-OH; N-terminus and C-terminus assumed), in series [5], the solubility is 100 mg/mL (≈ 135 mM).
As for “Hyp-Gly-Gln-Glu-phenyl-Gly-Leu-Ala ([Hyp]GQE[Phg]LA) [Example 45]”, in series [2], the “CTF (corrected total fluorescence) value” was “+ (+: 300,000 to 800,000)”. In addition, the “Content after 7 days” value in series [6] (40° C., 75% humidity, 7 days) turned out to be 98.147%. The compound also yielded a Decrease rate in series [6] (40° C., 75% humidity) of 0.439%. Also, the Initial content in series [6] stood at 98.586%.
Compound “Hyp-Gly-Gln-Glu-Leu-Leu-Ala ([Hyp]GQELLA) [Example 41]” showed a b-wave amplitude in series [1] of 510 μV. In series [2], the “CTF (corrected total fluorescence) value” was “+ (+: 300,000 to 800,000)”. Further, the “Content after 7 days” value in series [6] (40° C., 75% humidity, 7 days) worked out at 97.555%. The compound further came in with a Decrease rate in series [6] (40° C., 75% humidity) of 0.600%. The Initial content in series [6] is 98.155%. Besides, the Size of lesion in series [3] was 4,960 μm^2.
Take “Hyp-Gly-Gln-Glu-Val-Leu-Ala ([Hyp]GQEVLA) [Example 42]”: the b-wave amplitude in series [1] was determined as 380 μV. The “CTF (corrected total fluorescence) value” in series [2] is reported as “+ (+: 300,000 to 800,000)”. In series [3], the Size of lesion was 6,102 μm^2.
The like results for “Hyp-Gly-Gln-Glu-Val ([Hyp]GQEV) [Example 37]” were, in that order, 400 μV, “+ (+: 300,000 to 800,000)” and 5,775 μm^2.
